Measurements: US9383374B2, “Methods to determine susceptibility to treatment with leukotriene modifiers” (NATIONAL JEWISH HEALTH, priority 2008, dated 2016)

Test system: children with physician-diagnosed asthma
Test: Randomized placebo-controlled study of daily montelukast on LTE4-related albuterol usage in schoolchildren with asthma
Assay type: in vivo, human
Details: for Change in Albuterol Usage Per IQR Increase in LTE4, Relative difference (treatment vs baseline interval) / Change in Albuterol Usage Per IQR Increase in LTE4, Treatment Interval: montelukast group
Text: Twenty-eight children, aged 6 to 15, who had physician-diagnosed asthma were followed over a 5-month period (Nov. 15, 2005 to Apr. 15, 2006). Children were excluded from the study if they were already receiving montelukast. Many of the children are classified as urban poor. The children attended the same school.
After an initial two and a half month period (baseline interval), children were randomized to receive daily montelukast (montelukast group) or placebo (placebo group) for the final two and a half months of the study (treatment interval). Study medication and placebo were administered in a single-blinded fashion by school nurses or study personnel on school days and by parents (who were blinded) on non-school-days. Children were otherwise followed by their regular physicians who were free to adjust medications as needed (these medication changes were recorded and controlled for in the statistical analysis).
Each child was given a Doser (Meditrak, Hudson, M S) for use at school throughout the 5-month period. The Doser is an electronic counter that records the total number of (albuterol) activations in each 24-hour period. At study initiation, parents completed a questionnaire describing baseline demographic and asthma severity characteristics. School nurses recorded all other medication changes during the study.
Sixteen urine samples were collected from each child on 8 consecutive schooldays during the baseline interval and 8 consecutive schooldays during the treatment interval. Urine was collected at approximately the same time each day (10:00 AM to 12:00 PM). Collection was staggered in groups of 10 children so that urine monitoring occurred daily throughout the 5 months of the study.
Baseline model: A Poisson regression model employing generalized estimating equations (GEE) (Dobson A J. An introduction to generalized linear models, 2nd edition, Chapman & Hall/CRC 2001) was used to determine the strength of association between albuterol medication use (modeled as the outcome) and LTE4 levels, at various lag times (in days) between the variables. An indicator for Friday (=1 if response was on Friday, =0 otherwise) was included because children had regular exercise activities from Monday through Thursday, but not on Friday. […] The same day and up to a 4-day lag of LTE4 was tested for, in separate models.
Experiment model: Daily albuterol use was modeled as a function of LTE4, group (montelukast and placebo), interval (baseline and treatment), and all interactions of these variables, using Poisson regression and employing GEE. Using the baseline model as a guide, 3-day moving averages of LTE4 (days 0-2 and 1-3 prior to current day) were used. Other covariates in the model included daily indicators for Friday, prednisone use, special exercise days during the treatment interval, and interval-level indictors of ICS and LABA use.
Effect modifier models: These models were fit for the subjects randomized to montelukast only. The model had LTE4, interval, the effect modifier of interest, and all interactions of these variables. Otherwise, the model was similar to the ‘Experiment model’ described above. The effect modifiers tested included gender, ICS and LABA use, mean LTE4, mean FENO, height, mean cotinine, and mean LTE4 to FENO ratio.
The interquartile range (IQR) for LTE4 was used to standardize slope estimates; this statistic was determined by first calculating the IQR for each subject, and then taking the median across subjects. For all models described above, a first order autoregressive working covariance structure was used to model repeated measures within subjects over time. SAS software, version 9.1 (PROC GENMOD) was used to fit the data to the models described above. […]

[1] = Group 1 meds: No Meds or ICS, 1-3 day moving average
[2] = Group 2 meds: ICS and LABA, 1-3 day moving average
[3] = LTE4:FENO Ratio 1st quartile estimate
[4] = LTE4:FENO Ratio 3rd quartile estimate
[5] = mean FENO 1st quartile estimate
[6] = mean FENO 3rd quartile estimate
[7] = mean LTE4 1st quartile estimate
[8] = mean LTE4 3rd quartile estimate
[9] = mean urine Cotinine 1st quartile estimate
[10] = mean urine Cotinine 3rd quartile estimate

CC(C)(O)c1ccccc1CC[C@@H](SCC1(CC(=O)O)CC1)c1cccc(/C=C/c2ccc3ccc(Cl)cc3n2)c1 [Montelukast, montelukast]
Change in Albuterol Usage per IQR of LTE4, Relative Diff. (Female (Group 2 gender)): −26.7% | Change in Albuterol Usage per IQR of LTE4, Treatment interval (Female (Group 2 gender)): −11.5% | Change in Albuterol Usage per IQR of LTE4, Relative Diff. [1]: −22.0% | Change in Albuterol Usage per IQR of LTE4, Treatment interval [1]: −10.5% | Change in Albuterol Usage per IQR of LTE4, Relative Diff. [2]: −6.6% | Change in Albuterol Usage per IQR of LTE4, Treatment interval [2]: −1.0% | Change in Albuterol Usage per IQR of LTE4, Relative Diff. (Height 1st quartile estimate): −16.4% | Change in Albuterol Usage per IQR of LTE4, Treatment interval (Height 1st quartile estimate): −2.4% | Change in Albuterol Usage per IQR of LTE4, Relative Diff. (Height 3rd quartile estimate): −16.4% | Change in Albuterol Usage per IQR of LTE4, Treatment interval (Height 3rd quartile estimate): −0.3% | Change in Albuterol Usage per IQR of LTE4, Relative Diff. [3]: 1.8% | Change in Albuterol Usage per IQR of LTE4, Treatment interval [3]: −0.8% | Change in Albuterol Usage per IQR of LTE4, Relative Diff. [4]: −17.6% | Change in Albuterol Usage per IQR of LTE4, Treatment interval [4]: −1.3% | Change in Albuterol Usage per IQR of LTE4, Relative Diff. (Male (Group 1 gender)): −7.9% | Change in Albuterol Usage per IQR of LTE4, Treatment interval (Male (Group 1 gender)): −0.5% | Change in Albuterol Usage per IQR of LTE4, Relative Diff. [5]: −10.4% | Change in Albuterol Usage per IQR of LTE4, Treatment interval [5]: −0.1% | Change in Albuterol Usage per IQR of LTE4, Relative Diff. [6]: −0.6% | Change in Albuterol Usage per IQR of LTE4, Treatment interval [6]: −6.4% | Change in Albuterol Usage per IQR of LTE4, Relative Diff. [7]: −13.4% | Change in Albuterol Usage per IQR of LTE4, Treatment interval [7]: −1.5% | Change in Albuterol Usage per IQR of LTE4, Relative Diff. [8]: −10.9% | Change in Albuterol Usage per IQR of LTE4, Treatment interval [8]: −4.8% | Change in Albuterol Usage per IQR of LTE4, Relative Diff. [9]: −8.2% | Change in Albuterol Usage per IQR of LTE4, Treatment interval [9]: −4.0% | Change in Albuterol Usage per IQR of LTE4, Relative Diff. [10]: −6.6% | Change in Albuterol Usage per IQR of LTE4, Treatment interval [10]: −3.6% | Change in Albuterol Usage Per IQR Increase in LTE4, Relative difference (treatment vs baseline interval) (Lag 0-2): −10.8% | Change in Albuterol Usage Per IQR Increase in LTE4, Treatment Interval (Lag 0-2 (Day 0-2 moving average of LTE4)): −3.0% | Change in Albuterol Usage Per IQR Increase in LTE4, Relative difference (treatment vs baseline interval) (Lag 1-3): −13.0% | Change in Albuterol Usage Per IQR Increase in LTE4, Treatment Interval (Lag 1-3 (Day 1-3 moving average of LTE4)): −3.2%
